In US20120309767A1, “PROCESS FOR THE PREPARATION OF ALPHA FORM OF IMATINIB MESYLATE” (priority 2010, published 2012):
Read-outs that look alike come from different tables or passages of the source.

Conditions: 40° C. and 75 RH; for Identification by IR: vs working standard of Imatinib Mesylate (Form-α)
Procedure: FTIR (Fourier transform infrared spectrophotometer) • Make: SHIMADZU, IR Prestige-21 • Sample preparation: KBr pellets • 3. […] HPLC: Used Agilent 1200, VWD detector, system gradient Instrument conditions are:
A stability study was performed on the alpha form of imatinib mesylate at 40° C. and 75 RH for 3 months.

Assay [by HPLC] (on anhydrous) (1M): 99.94%
Descriptions (1M): White
Water content by KF (1M): 0.55 % w/w
Identification by IR (1M): concordant
Assay [by HPLC] (on anhydrous) (2M): 99.70%
Descriptions (2M): White
Related Substance [by HPLC] Unknown impurity RRT = 0.81 (2M): 0.03 % w/w
Water content by KF (2M): 0.61 % w/w
Identification by IR (2M): concordant
Assay [by HPLC] (on anhydrous) (3M): 99.75%
Descriptions (3M): White
Related Substance [by HPLC] Known impurities: Impurity-1 (3M): 0.02 % w/w
Related Substance [by HPLC] Unknown impurity RRT = 0.81 (3M): 0.02 % w/w
Water content by KF (3M): 0.56 % w/w
Identification by IR (3M): concordant
Assay [by HPLC] (on anhydrous) (Initial): 99.98%
Descriptions (Initial): White
Related Substance [by HPLC] Total impurities (Initial): 0.04 % w/w
Related Substance [by HPLC] Unknown impurity RRT = 0.81 (Initial): 0.04 % w/w
Water content by KF (Initial): 0.52 % w/w
Identification by IR (Initial): concordant
SMILES: CS(=O)(=O)O.Cc1ccc(NC(=O)c2ccc(CN3CCN(C)CC3)cc2)cc1Nc1nccc(-c2cccnc2)n1 [Example 2]
